Read-outs that look alike come from different tables or passages of the source. Marks after values point to notes of the source that are not given here.
Tests used:
[1] = set-up: method as in PMID 18991471; conditions: compared to esomeprazole, pantoprazole and rabeparzole; cited from earlier work
[2] = cited from earlier work
[3] = set-up: method as in PMID 32461076; conditions: daily dose of 40 mg esomeprazole for three days; cited from earlier work
[4] = Duodenal fluid volume via MRI, control vs PPI condition; assay type: in vivo, human; conditions: for relative decrease in duodenal AUVC: first 180 min after Norvir tablet with 240 mL water, n = 5
Experimental: All volunteers provided written informed consent before participating in the trial. Each trial day, the participant came to the radiology department at the University Hospitals Leuven after an overnight fast (at least 12 h). Water was allowed until the night before the trial except for the volume needed to swallow the PPI tablet. For the PPI condition, participants were pre-treated with a once-daily dose of Nexium (just before breakfast) starting two days prior to the trial day. On the morning of the trial, the final Nexium tablet was taken 2 h prior to the arrival time at the hospital, with as little water as possible to swallow the tablet. […] A venous catheter was placed in the subject’s arm and a blank blood sample (5 mL) was collected in heparinized tubes (BD Vacutainer systems, Plymouth, UK). […] A scouting sequence was used in the coronal and transversal plane to allow correct sequence positioning. At each time point, three standardized sequences were used to acquire images; sequence parameters are depicted in Table 1. Images were taken during exhalation breath hold. Images were analysed using Horos™ (Version 3.3.6, Horos project), a free open source medical images viewer. […] This made the sequence unsuitable for fluid determination as the duodenum passes these blood vessels which would interfere with the outlining of the fluid present in the duodenum. Sequence 2 was therefore used as a localizer for the duodenum (i.e., determining the location of the duodenojejunal flexure (Figure 1). As free water lights up in a T2 weighted image, a trained operator semi-automatically traced all the bright spots in each slice for the stomach and duodenum, according to a published procedure. […] This cut-off value must be regarded as a rule of thumb and manual correction was made to account for bright organs like the gall bladder and obvious acquisition errors (e.g., illogical dark spots in the middle of a fluid filled stomach).

[5] = Gastric fluid volume via MRI, control vs PPI condition; assay type: in vivo, human; conditions: for relative decrease in total gastric fluid volume (AUVC): first 180 min after Norvir tablet with 240 mL water, median, n = 5
Experimental: Each trial day, the participant came to the radiology department at the University Hospitals Leuven after an overnight fast (at least 12 h). Water was allowed until the night before the trial except for the volume needed to swallow the PPI tablet. For the PPI condition, participants were pre-treated with a once-daily dose of Nexium (just before breakfast) starting two days prior to the trial day. On the morning of the trial, the final Nexium tablet was taken 2 h prior to the arrival time at the hospital, with as little water as possible to swallow the tablet. […] A venous catheter was placed in the subject’s arm and a blank blood sample (5 mL) was collected in heparinized tubes (BD Vacutainer systems, Plymouth, UK). […] In addition, subjects were placed in a Philips 1.5 T MRI System (Philips, Best, The Netherlands) to assess the gastric and duodenal fluid volume, once before administration of the study medication and afterwards at predetermined time points, i.e., 20, 40, 60, 90, 120, 150 and 180 min.
Upon entering the MRI system, a rectangular dStream FlexCoverage Anterior coil (Ingenia 1.5 tesla, Philips, Best, The Netherlands) was placed on the torso of the subjects. A scouting sequence was used in the coronal and transversal plane to allow correct sequence positioning. […] Images were taken during exhalation breath hold.
Images were analysed using Horos™ (Version 3.3.6, Horos project), a free open source medical images viewer. Gastric and duodenal fluid volumes reported in this study were acquired with sequence 1. […] This made the sequence unsuitable for fluid determination as the duodenum passes these blood vessels which would interfere with the outlining of the fluid present in the duodenum.
As free water lights up in a T2 weighted image, a trained operator semi-automatically traced all the bright spots in each slice for the stomach and duodenum, according to a published procedure [21]. To differentiate between free water and other contents in the respective organs, a cut-off value (lower threshold) of 30% of the brightest voxel in either the stomach or the duodenum was applied. This cut-off value must be regarded as a rule of thumb and manual correction was made to account for bright organs like the gall bladder and obvious acquisition errors (e.g., illogical dark spots in the middle of a fluid filled stomach). Subsequently, a 3D image of the traced fluid was rendered and the fluid volume was calculated by adding up the fluid volumes of each slide (multiplying the surface area of the traced region of interest with the slice thickness).

[6] = cited from earlier work; remark: listed apart in the source
[7] = Ritonavir plasma concentrations after oral intake of a Norvir tablet, control vs PPI condition (LC-MS/MS); assay type: in vivo, human; conditions: for AUC0-480min / Tmax: one Norvir tablet oral, fasted, median (range), n = 4
Experimental: All volunteers provided written informed consent before participating in the trial. Each trial day, the participant came to the radiology department at the University Hospitals Leuven after an overnight fast (at least 12 h). Water was allowed until the night before the trial except for the volume needed to swallow the PPI tablet. For the PPI condition, participants were pre-treated with a once-daily dose of Nexium (just before breakfast) starting two days prior to the trial day. On the morning of the trial, the final Nexium tablet was taken 2 h prior to the arrival time at the hospital, with as little water as possible to swallow the tablet. A daily dose of 40 mg esomeprazole for three days has shown to elevate and sustain the gastric and duodenal pH to values around 7.1 and 7.5, respectively, indicative of the acid-inhibitory effect. A venous catheter was placed in the subject’s arm and a blank blood sample (5 mL) was collected in heparinized tubes (BD Vacutainer systems, Plymouth, UK). […] In addition, subjects were placed in a Philips 1.5 T MRI System (Philips, Best, The Netherlands) to assess the gastric and duodenal fluid volume, once before administration of the study medication and afterwards at predetermined time points, i.e., 20, 40, 60, 90, 120, 150 and 180 min.
Blood samples were stored on ice during the remainder of the study day, before centrifugation at 2880× g, for 10 min at 4 °C (Centrifuge 5804R, Eppendorf, Hamburg, Germany). Plasma was collected and stored at −20 °C pending analysis. For analysis, a liquid-liquid extraction was performed in which 50 µL of plasma was added to 450 µL HBSS and vortexed for a few seconds. Lopinavir was used as internal standard: 100 µL of a 200 nM stock solution in 25% v/v DMSO-water was added to the mixture. Before extraction, the pH was adjusted by adding 500 µL of 40 mM borax buffer (pH = 9), followed by 5 mL of the extraction medium hexane—ethyl acetate (50:50, v/v) and shaken for 1 min. The mixture was centrifugated at 2880× g, for 5 min at 4 °C and the organic layer was transferred to a new test tube and evaporated to dryness under a gentle airflow. The residue was redissolved in 1 mL of methanol and vortexed for 30 s before another evaporation cycle. The resulting residue was reconstituted in 200 µL methanol—water (50:50, v/v) awaiting analysis.
For the analysis, a Waters ACQUITY UHPLC H-Class system consisting of a quaternary pump was used combined with a Waters Xevo TQ-S micro mass spectrometer (Waters, Milford, MA, USA). Separation took place on a Kinetex® column (2.6 µm XB-C18 100 A, 50 × 2.1 mm, Phenomenex, Utrecht, the Netherlands) using isocratic elution with methanol—0.1% formic acid (65:35, v/v) followed by a wash gradient and re-equilibration (Table 2). Column temperature was set at 35 °C and samples were kept in the autosampler at 15 °C. […] Peaks were detected with MS/MS, using electrospray ionization (ESI) as ion source. […] Fragmentation was induced by collision with argon. The system was operated in multi-reaction monitoring (MRM) mode with the mass transitions according to Table 3.

[8] = set-up: method as in PMID 32461076; conditions: median; esomeprazole pre-treatment, Norvir tablet; cited from earlier work
[9] = PPI vs control condition, volunteer HV02
[10] = PPI vs control condition, median, present study

COc1ccc2[nH]c([S+]([O-])Cc3ncc(C)c(OC)c3C)nc2c1 (stereo not drawn) [omeprazole]
effect on the gastric fluid volume compared to other PPIs [1]: less pronounced effect on the gastric fluid volume | effect on plasma Cmax or AUC of ritonavir [2]: did not report an effect

COc1ccc2nc([S@@+]([O-])Cc3ncc(C)c(OC)c3C)[nH]c2c1 [esomeprazole]
duodenal pH [3]: ~7.5 | gastric pH [3]: around 7.1 | duodenal fluid volume ([4]; PPI condition, after Norvir tablet with 240 mL water, median): 8.6 mL | relative decrease in duodenal AUVC ([4]; PPI vs control condition, median): 33% | relative decrease in duodenal AUVC ([4]; PPI vs control condition, median, listed as PPI): 33.3% | drop in duodenal fluid AUVC [4, 9]: 37% | decrease in duodenal fluid volume ([4]; after PPI treatment, average over all volunteers): 32% | relative decrease in gastric residual volume (GRV) ([5]; PPI vs control condition, fasted, prior to ritonavir intake, five volunteers): 41% | relative decrease in total gastric fluid volume (AUVC) ([5]; PPI vs control condition): 44% | relative decrease in total gastric fluid volume (AUVC) ([5]; PPI vs control condition, listed as PPI): 43.9% | gastric residual volume (GRV) ([5]; following pre-treatment with esomeprazole 40 mg for three days, fasted state, mean ± SD): 20 ± 15 mL

CC(C)c1nc(CN(C)C(=O)N[C@H](C(=O)N[C@@H](Cc2ccccc2)C[C@H](O)[C@H](Cc2ccccc2)NC(=O)OCc2cncs2)C(C)C)cs1 [ritonavir]
Log P [6]: 4.3 | pKa ([6]; weak base): 2.6 | AUC0-480min ([7]; PPI condition (esomeprazole 40 mg once daily for three days)): 2.5 · 10^5 (1.2 · 10^5–3.2 · 10^5) nmol·min/L | PPI-induced decrease in Cmax [7, 10]: 39.0% | delay in tmax [7, 10]: 10% | drop in plasma AUC [7, 9]: 65% | Tmax ([7]; both sexes, human, plasma, po, 40 mg, PPI condition (esomeprazole 40 mg once daily for three days), read-out: tmax (converted)): 3.75 h | Cmax ([7]; both sexes, human, plasma, po, 100 mg): 1130 nM | Tmax ([7]; both sexes, human, plasma, po, 100 mg, control condition, read-out: tmax (converted)): 3.22 h | AUC0-480min ([7]; control condition): 3.8 · 10^5 (2.6 · 10^5–5.9 · 10^5) nmol·min/L | Tmax ([7]; control condition): 192.5 (175–240) min | PPI-induced decrease in AUC0–480min [8]: 39.5% | PPI-induced decrease in Cmax [8]: 49.6% | delay in tmax [8]: 50%
